Source: patent US7674595B1, “Solid state NMR method for screening cell membrane protein binding drug candidates” (priority 2006, dated 2010)

Key:
[1] = target: M2 Protein from Influenza A virus (Influenza A virus, UniProt P06821); type: binding; settings: spectra with AMT vs without AMT, FIG. 6
[2] = tested on: gramicidin A channel; experiment: 17O solid-state NMR of 17O-[D-Leu10]-gA in AAO-aligned DMPC bilayers, reversible ion binding; settings: 2.4 M KCl, approx. double occupancy of K+ in the dimeric channel, channel perpendicular to B0, 19.6 T, 40° C., reversible by EDTA wash
Description: The ^17O-[D-Leu^10]-gA was prepared as described previously (29), resulting in material with 57% enrichment of ^17O isotope (H^172O from Cambridge Isotope Labs, Andover, Mass.). The dry peptide was codissolved with DMPC in a 1:16 molar ratio in benzene/ethanol (20:1 v/v) solvent (28) and pipetted onto the nanoporous support. The organic solution containing gA and DMPC was rapidly adsorbed. This commercial substrate, “20 nm” Anodisc® 13 membranes (Whatman International), is shaped as disks 13 mm in diameter that are approximately […] thick. For ^31P NMR experiments AAO disks were cut into strips less than 5 mm in width to fit into a rectangular approximately 600 μL sample coil. We have also designed a special coil for ^17O NMR that required no disk cutting. Typically, stacks of up to 40 AAO strips or disks were employed for NMR measurements. The disks have a well-aligned through-film porous structure with nanochannels directed perpendicular to the disk outer surface.
The manufacturer specifies that these nanoporous substrates have a 20-nm filtration diameter cutoff. […]
The Leu^10 carbonyl in the gramicidin A pore is one of three carbonyl sites involved in K^+ binding. We have monitored K^+ binding using the ^17O resonance of selectively labeled Leu^10 carbonyls of gramicidin A dimers incorporated into DMPC bilayers and aligned using the AAO method. […]

[3] = tested on: gramicidin A channel; settings: DMPC-gA aligned by glass slides, channel parallel to B0; cited from earlier work

M2 Protein from Influenza A virus, sequence (P06821 whole entry): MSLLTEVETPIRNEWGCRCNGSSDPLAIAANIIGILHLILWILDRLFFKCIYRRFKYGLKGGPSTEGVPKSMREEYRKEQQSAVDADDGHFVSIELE

| Structure (SMILES) | NMR signal changes upon binding drug (spectral shift of M2 protein) [1] | downfield shift Δδ of the 17O resonance of Leu10 carbonyl upon ion binding (δ⊥) [2] | shift of the 17O resonance at δ∥ upon K+ binding [3] [ppm] |
| --- | --- | --- | --- |
| NC12CC3CC(CC(C3)C1)C2 [Amantadine] | dramatic changes | – | – |
| [Cl-].[K+] [KCl] | – | ≈ 18 ppm | 40 |
